Source: PubChem BioAssay AID330 (DTP/NCI, 2004)
Values joined by “and” are separate entries in the source; they are usually repeats but may differ in a detail not shown here. Equal values may be shown once. Inconclusive results and toxic doses are left out.

System: P388 leukemia ip, CD2F1 mice, survival T/C
Test: NCI In Vivo Anticancer Drug Screen. Data for tumor model P388 Leukemia (intraperitoneal) in CD2F1 (CDF1) mice
Settings: endpoint: median survival time, higher = longer survival
How it was run: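 Mice carrying the transplanted tumor received test compound or vehicle. Survival was recorded in each group, and the value is the treated-group measurement divided by that of the vehicle-treated control group.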

[1] = dose: 50.0 mg/kg/injection, schedule: Q01DX005 (ip), vehicle: saline with Tween-80
[2] = dose: 100.0 mg/kg/injection, schedule: Q01DX005 (ip), vehicle: saline with Tween-80
[3] = dose: 200.0 mg/kg/injection, schedule: Q01DX005 (ip), vehicle: saline with Tween-80
[4] = dose: 50.0 mg/kg/injection, schedule: Q01DX009 (ip), vehicle: saline
[5] = dose: 100.0 mg/kg/injection, schedule: Q01DX009 (ip), vehicle: saline
[6] = dose: 200.0 mg/kg/injection, schedule: Q01DX009 (ip), vehicle: saline
[7] = dose: 50.0 mg/kg/injection, schedule: Q01DX009 (ip), vehicle: saline with Tween-80
[8] = dose: 100.0 mg/kg/injection, schedule: Q01DX009 (ip), vehicle: saline with Tween-80
[9] = dose: 200.0 mg/kg/injection, schedule: Q01DX009 (ip), vehicle: saline with Tween-80
[10] = dose: 60.0 mg/kg/injection, schedule: Q01DX005 (ip), vehicle: saline with Tween-80
[11] = dose: 120.0 mg/kg/injection, schedule: Q01DX005 (ip), vehicle: saline with Tween-80
[12] = dose: 240.0 mg/kg/injection, schedule: Q01DX005 (ip), vehicle: saline with Tween-80
[13] = dose: 200.0 mg/kg/injection, schedule: Q04DX003 (ip), vehicle: saline with Tween-80
[14] = dose: 50.0 mg/kg/injection, schedule: Q01DX009 (ip), vehicle: Klucel (hydroxypropylcellulose) (HPC)
[15] = dose: 100.0 mg/kg/injection, schedule: Q01DX009 (ip), vehicle: Klucel (hydroxypropylcellulose) (HPC)
[16] = dose: 200.0 mg/kg/injection, schedule: Q01DX009 (ip), vehicle: Klucel (hydroxypropylcellulose) (HPC)

## O=c1[nH]nc(SCc2ccccc2)c2nncn12
[1]
  T/C: 97 % of control
[2]
  T/C: 92 % of control
[3]
  T/C: 95 % of control

## COC(=O)CS(=O)(=O)CS(=O)(=O)CC(=O)OC
[4]
  T/C: 107 % of control
[5]
  T/C: 100 % of control
[6]
  T/C: 97 % of control

## CC(=O)OCC1OC(n2nnc(CCl)c2CCl)C(OC(C)=O)C(OC(C)=O)C1OC(C)=O (stereo not drawn)
[7]
  T/C: 110 % of control
[8]
  T/C: 98 % of control
[9]
  T/C: 117 % of control

## CSc1ccc2c(c1)C(N1CCN(C)CC1)Cc1ccccc1S2 (stereo not drawn)
dose: 6.25 mg/kg/injection, schedule: Q01DX009 (ip), vehicle: saline with Tween-80
  T/C: 106 % of control and 107 % of control and 114 % of control
dose: 12.5 mg/kg/injection, schedule: Q01DX009 (ip), vehicle: saline with Tween-80
  T/C: 103 % of control and 107 % of control and 95 % of control
dose: 12.5 mg/kg/injection, schedule: Q01DX009 (ip), vehicle: saline
  T/C: 117 % of control
dose: 25.0 mg/kg/injection, schedule: Q01DX009 (ip), vehicle: saline with Tween-80
  T/C: 86 % of control and 95 % of control
dose: 25.0 mg/kg/injection, schedule: Q01DX009 (ip), vehicle: saline
  T/C: 118 % of control

## O=C(O)c1ccccc1C(=O)OCc1ccccc1
dose: 100.0 mg/kg/injection, schedule: Q04DX003 (ip), vehicle: Klucel (hydroxypropylcellulose) (HPC)
  T/C: 100 % of control
dose: 200.0 mg/kg/injection, schedule: Q04DX003 (ip), vehicle: Klucel (hydroxypropylcellulose) (HPC)
  T/C: 100 % of control
dose: 400.0 mg/kg/injection, schedule: Q04DX003 (ip), vehicle: Klucel (hydroxypropylcellulose) (HPC)
  T/C: 97 % of control

## C=CS(=O)(=NN1C(=O)c2ccccc2C1=O)c1ccc(C)cc1 (stereo not drawn)
dose: 6.25 mg/kg/injection, schedule: Q01DX001 (ip), vehicle: Klucel (hydroxypropylcellulose) (HPC)
  T/C: 95 % of control
dose: 12.5 mg/kg/injection, schedule: Q01DX001 (ip), vehicle: Klucel (hydroxypropylcellulose) (HPC)
  T/C: 98 % of control
dose: 25.0 mg/kg/injection, schedule: Q01DX001 (ip), vehicle: Klucel (hydroxypropylcellulose) (HPC)
  T/C: 104 % of control and 95 % of control
dose: 50.0 mg/kg/injection, schedule: Q01DX001 (ip), vehicle: Klucel (hydroxypropylcellulose) (HPC)
  T/C: 101 % of control and 104 % of control
dose: 100.0 mg/kg/injection, schedule: Q01DX001 (ip), vehicle: Klucel (hydroxypropylcellulose) (HPC)
  T/C: 106 % of control and 113 % of control

## COc1ccc(C2=NNC(=O)CC2)cc1OC
dose: 12.5 mg/kg/injection, schedule: Q04DX003 (ip), vehicle: saline
  T/C: 99 % of control
dose: 25.0 mg/kg/injection, schedule: Q04DX003 (ip), vehicle: saline
  T/C: 101 % of control
dose: 50.0 mg/kg/injection, schedule: Q04DX003 (ip), vehicle: saline
  T/C: 101 % of control

## C[N+](C)(C)CC(=O)NNC(=O)CCn1[nH]c(=O)c(Cl)c(Cl)c1=O
[10]
  T/C: 104 % of control
[11]
  T/C: 99 % of control
[12]
  T/C: 97 % of control

## COc1cc(C(NC(N)=O)c2cc3c(cc2O)OCO3)cc(OC)c1OC (stereo not drawn)
[10]
  T/C: 106 % of control
[11]
  T/C: 102 % of control
[12]
  T/C: 100 % of control

## NC(N)=NO
dose: 8.2 mg/kg/injection, schedule: Q01DX009 (ip), vehicle: water
  T/C: 110 % of control
dose: 12.0 mg/kg/injection, schedule: Q01DX009 (ip), vehicle: water
  T/C: 105 % of control
dose: 75.0 mg/kg/injection, schedule: Q01DX009 (ip), vehicle: saline
  T/C: 155 % of control
dose: 150.0 mg/kg/injection, schedule: Q01DX009 (ip), vehicle: saline
  T/C: 170 % of control

## c1ccc(-c2n[nH]c3ccccc23)cc1
dose: 25.0 mg/kg/injection, schedule: Q04DX003 (ip), vehicle: saline with Tween-80
  T/C: 101 % of control
dose: 50.0 mg/kg/injection, schedule: Q04DX003 (ip), vehicle: saline with Tween-80
  T/C: 110 % of control
dose: 100.0 mg/kg/injection, schedule: Q04DX003 (ip), vehicle: saline with Tween-80
  T/C: 101 % of control
[13]
  T/C: 99 % of control

## COc1ccc(S(=O)(=O)/C(=C/c2ccccc2[N+](=O)[O-])C(=O)c2ccccc2)cc1
[1]
  T/C: 111 % of control
[2]
  T/C: 103 % of control
[3]
  T/C: 104 % of control

## CC1CC(C#N)=C(NC#N)NC1=O (stereo not drawn)
dose: 7.5 mg/kg/injection, schedule: Q01DX005 (ip), vehicle: saline with Tween-80
  T/C: 108 % of control
dose: 7.5 mg/kg/injection, schedule: Q01DX005 (ip), vehicle: saline
  T/C: 101 % of control
dose: 15.0 mg/kg/injection, schedule: Q01DX005 (ip), vehicle: saline with Tween-80
  T/C: 111 % of control
dose: 15.0 mg/kg/injection, schedule: Q01DX005 (ip), vehicle: saline
  T/C: 106 % of control

## CC(=O)NNC(=O)CCCCCCC(=O)NNC(C)=O
dose: 50.0 mg/kg/injection, schedule: Q01DX005 (ip), vehicle: Klucel (hydroxypropylcellulose) (HPC)
  T/C: 98 % of control
dose: 100.0 mg/kg/injection, schedule: Q01DX005 (ip), vehicle: Klucel (hydroxypropylcellulose) (HPC)
  T/C: 98 % of control

## CCCCCCCCCOCC(O)CCl (stereo not drawn)
[14]
  T/C: 97 % of control
[15]
  T/C: 98 % of control
[16]
  T/C: 93 % of control

## c1ccc2sc(SCSc3nc4ccccc4s3)nc2c1
[14]
  T/C: 111 % of control
[15]
  T/C: 112 % of control
[16]
  T/C: 114 % of control
dose: 400.0 mg/kg/injection, schedule: Q01DX009 (ip), vehicle: Klucel (hydroxypropylcellulose) (HPC)
  T/C: 117 % of control

## C1=C(c2ccccc2)CS1
dose: 100.0 mg/kg/injection, schedule: Q01DX001 (ip), vehicle: saline with Tween-80
  T/C: 102 % of control

## N#Cc1ccc(N2C(=O)c3ccc(C(O)(C(F)(F)F)C(F)(F)F)cc3C2=O)cc1C#N
[14]
  T/C: 103 % of control
[15]
  T/C: 103 % of control
[16]
  T/C: 99 % of control

## CCCCCSc1ncnc2nc[nH]c12
[7]
  T/C: 100 % of control
[8]
  T/C: 109 % of control
dose: 100.05 mg/kg/injection, schedule: Q04DX003 (ip), vehicle: saline with Tween-80
  T/C: 95 % of control
[9]
  T/C: 104 % of control
[13]
  T/C: 104 % of control

## O=C(CC(=O)NO)NO
[7]
  T/C: 106 % of control
[4]
  T/C: 115 % of control
[8]
  T/C: 108 % of control
[5]
  T/C: 110 % of control
[9]
  T/C: 108 % of control
[6]
  T/C: 108 % of control

## CCC1(O)C(=O)Nc2ccccc2C1=O (stereo not drawn)
dose: 60.0 mg/kg/injection, schedule: Q01DX005 (ip), vehicle: Klucel (hydroxypropylcellulose) (HPC)
  T/C: 98 % of control
dose: 120.0 mg/kg/injection, schedule: Q01DX005 (ip), vehicle: Klucel (hydroxypropylcellulose) (HPC)
  T/C: 88 % of control
dose: 240.0 mg/kg/injection, schedule: Q01DX005 (ip), vehicle: Klucel (hydroxypropylcellulose) (HPC)
  T/C: 98 % of control

## O=c1c2ccccc2nc(-c2ccccc2Cl)n1/N=C/c1cccc([N+](=O)[O-])c1
dose: 0.78 mg/kg/injection, schedule: Q01DX009 (ip), vehicle: saline with Tween-80
  T/C: 99 % of control
dose: 1.56 mg/kg/injection, schedule: Q01DX009 (ip), vehicle: saline with Tween-80
  T/C: 92 % of control
dose: 3.12 mg/kg/injection, schedule: Q01DX009 (ip), vehicle: saline with Tween-80
  T/C: 91 % of control

## CC(Cc1ccccc1)NN1CCOC(c2ccccc2)C1C (stereo not drawn)
dose: 100.0 mg/kg/injection, schedule: Q04DX002 (ip), vehicle: saline
  T/C: 102 % of control
dose: 200.0 mg/kg/injection, schedule: Q04DX002 (ip), vehicle: saline
  T/C: 107 % of control
dose: 400.0 mg/kg/injection, schedule: Q04DX002 (ip), vehicle: saline
  T/C: 101 % of control

## CN1c2ccccc2C2=C(C(=O)CCS2)S1(=O)=O
dose: 50.0 mg/kg/injection, schedule: Q01DX005 (ip), vehicle: saline
  T/C: 109 % of control
dose: 100.0 mg/kg/injection, schedule: Q01DX005 (ip), vehicle: saline
  T/C: 100 % of control
dose: 200.0 mg/kg/injection, schedule: Q01DX005 (ip), vehicle: saline
  T/C: 101 % of control

## COP(=S)(NC(C)C)Oc1ccc(C)cc1[N+](=O)[O-] (stereo not drawn)
[7]
  T/C: 98 % of control
[8]
  T/C: 100 % of control
[9]
  T/C: 90 % of control

## [O-]/[N+](=C\c1ccc(Cl)cc1Cl)c1ccccc1
[14]
  T/C: 96 % of control
[15]
  T/C: 100 % of control
[16]
  T/C: 100 % of control
